Data taken from patent publication US8975275B2, “Use of chemotherapeutic agents” (priority 1999, dated 2015).
Where a name gives a salt, the structure may show the parent alone.

Key:
Assay type in all cases: in vivo, human
[1] = system: pulpitis due to carious diseases; experiment: Topical treatment of pulpitis due to carious diseases (patient cases)
Source text: This is of great importance because, for example in the case of caries profunda, it is always necessary to decide whether softened residual dentin can be left over the pulp. By virtue of complete elimination of the microbes present, there is now a novel method of treatment wherein a thin softened dentin covering can be left if the compounds of formula (I) or formula (II) are used. This method of treatment makes it possible to free infected dentin layers of microbes and to stop pulp infections. This means that pain reactions are eliminated and pulp infections are to a certain extent cured. The pulp remains vital. The topical application of the compounds of formula (I) or formula (II) followed the removal of the carious dentin. The compounds of formula (I) or formula (II) were applied for example in aqueous solution, in a form of gelatinous consistency or on an inert carrier, for example by means of a cotton wool plug. The overlying cavity was occluded with a cement to seal the margins. The cotton wool plug was left in the cavity for three to six days. The compounds of formula (I) or formula (II) can be used in concentrations of 0.005 mg/ml to 200 mg/ml, Preferred concentrations are those ranging from 0.5 mg/ml to 150 mg/ml and particularly preferred concentrations are those ranging from 10 to 100 mg/ml.

[2] = system: wounds, bacterial skin infections, diabetic foot syndrome; experiment: Wound care: topical/local application (patient cases); settings: for wound check-up, ulcer c) / wound check-up, ulcer a) / wound check-up, ulcer b): Patient D 3; for wound check-up: Patient D 4
Source text: Postoperative wound infections can generally occur in cases of inadequate infection prophylaxis following surgical interventions. Posttraumatic wound infections can arise due to cuts, stings, bruises, bites or gunshot wounds. Local perioperative prophylaxis can be carried out in the case of aseptic operations with a slight risk of infection. It is also possible to use local perioperative prophylaxis in addition to systemic perioperative prophylaxis, for example in the case of infections with an increased risk of infection, such as implantations, heart operations, transplantations, neurosurgical operations, operations in a highly contaminated area such as the oral cavity, oesophagus, rectum or colon, hysterectomy, bile duct operations, operations on patients with lowered resistance, or amputations. The local treatment of first, second or third degree burns can be administered prophylactically or after infection. […] Examples of hand infections are panaritium cutaueum, panaritium subcutaneum, panaritium ossale, panaritium articulate or tendovaginitis purulenta. In postoperative sepsis the infected wounds can be rendered substantially or completely free of microbes by the topical application of antibacterial agents. Gangrenes can be handled by local treatment with antibiotics in addition to therapy with parenteral antibiotics. Examples of acute bacterial skin infections are pyoderma, erysipelas, furuncles, carbuncles, phlegmons, abscesses, ulcus cruris, diabetic foot, infected decubital ulcers, blood blisters, erysipeloids or erytlrasma. Examples of chronic bacterial skin infections are lupus vulgaris, swimming-pool granuloma, Buruli ulcers or actinomycosis. Secondary bacterial infections occur for example in virus infections such as herpes simplex, herpes zoster or chicken-pox. Secondary bacterial infections of dermatoses occur for example in eczema, the exudation stage of neurodermatitis, vesicular dermatoses or contact dermatitis. Milder and moderate forms of acne and rosacea can also be treated locally.

[3] = system: infected root canal and periapical region; experiment: Topical treatment of the infected root canal and the periapical region (patient cases)
Description: In the clinical use of the compounds of formula (I) or formula (II), the pulp residues are removed first. The preparation of the canals is carried out with minimum discomfort for the patient. The canals are then flushed with hydrogen peroxide, Other methods of disinfection can be omitted. The compounds of formula (I) or formula (II), in a liquid form of administration, are then introduced into the toot canal under pressure using a cannula. The compounds of formula (I) or (II) are then injected in dissolved form or in a gelatinous form of administration. The root canal is subsequently occluded in the crown region, first with a cotton wool plug and then with zinc phosphate cement to seal the margins. If the canals are not gangrenous, the antibiotics remain in the canals for 3 days. […] The compounds of formula (I) or formula (II) can be used in concentrations of 0.005 mg/ml to 200 mg/ml.
In this application technique, which is known from intraligamental anaesthesia, the tooth is completely flooded with the antibacterial solution of the compounds of formula (I) or formula (II) in the entire root region.

[4] = gel (1%) weekly, after 2nd week

With COc1c(N2C[C@@H]3CCCN[C@@H]3C2)c(F)cc2c(=O)c(C(=O)O)cn(C3CC3)c12 [moxifloxacin hydrochloride, 1-cyclopropyl-6-fluoro-1,4-dihydro-8-methoxy-7-[(4aS,7aS)-octahydro-6H-pyrrolo[3,4-b]pyridin-6-yl]-4-oxo-3-quinolinecarboxylic acid] the “clinical finding at check-up” value ([1]; Patient A 1.1, gel 25 mg/ml, after final filling, check-up after 3 weeks) was “tooth vital, patient symptom-free”, the “clinical finding at check-up” value ([1]; Patient A 1.10, teeth 16, 17, 27, 36, 37, 46 occlusal caries, pellet inserts gel 50 mg/ml, check-up after 14 days) was “patient symptom-free, teeth vital” and the “clinical finding at check-up” value ([1]; Patient A 1.1, tooth 24 carious defect, pellet insert gel 25 mg/ml, check-up after 4 days) was “patient was symptom-free”. The “clinical finding at check-up” value ([1]; Patient A 1.2, gel 50 mg/ml, after final filling, check-up after 14 days) was “teeth vital, patient symptom-free”, the “clinical finding at check-up” value ([1]; Patient A 1.2, teeth 11, 13 carious defects, pellet inserts gel 50 mg/ml, check-up after 1 week) was “teeth 11 and 13 symptom-free” and the “clinical finding at check-up” value ([1]; Patient A 1.3, gel 25 mg/ml, repetition of insert, check-up after 3 days) was “tooth vital, patient symptom-free”. For the same compound, the “clinical finding at check-up” value ([1]; Patient A 1.3, tooth 24 carious defect, pellet insert gel 25 mg/ml, check-up after one week) was “still slight discomfort of unknown origin”, the “clinical finding at check-up” value ([1]; Patient A 1.4, major mesial carious defect, night pain, pellet inserts gel 50 mg/ml, check-up after 7 days) was “patient symptom-free, tooth vital” and the “clinical finding at check-up” value ([1]; Patient A 1.5, tooth 13 weakly vital, night pain, pellet insert gel 50 mg/ml, check-up after 4 days) was “patient symptom-free, tooth vital”. The “clinical finding at check-up” value ([1]; Patient A 1.6, gel 50 mg/ml, repetition of insert, check-up after 7 days) was “patient symptom-free, tooth vital”, the “clinical finding at check-up” value ([1]; Patient A 1.6, tooth 36 reduced vitality, pellet insert gel 50 mg/ml, check-up after 6 days) was “still slight sensitivity to heat and cold” and the “clinical finding at check-up” value ([1]; Patient A 1.7, tooth 44 reduced vitality, pellet inserts gel 50 mg/ml, check-up after 4 days) was “patient symptom-free”. The “clinical finding at check-up” value ([1]; Patient A 1.8, tooth 36 reduced vitality, pellet insert gel 50 mg/ml, check-up after 3 weeks) was “patient symptom-free, tooth vital”, the “clinical finding at check-up” value ([1]; Patient A 1.9, tooth 27, pellet insert gel 25 mg/ml, check-up after 7 days) was “patient symptom-free, tooth vital” and the wound outcome ([2]; Patient D 1, combustio escharotica on left forearm, gel (1%), after one week) was “Regeneration of skin epithelium with complete wound closure”. The “wound check-up, ulcer c)” value ([2]; D IV/D V, gel (1%) weekly, after 2nd week) was “ulcer C IV/D V healed”, the “wound check-up, ulcer a)” value ([2]; deep 2×1.5 cm greasy ulcer under right big toe, dressings with gel (1%) at weekly intervals, after 1st week) was “ulcer D I, 1×0.5 cm, clean” and the “wound check-up, ulcer a)” value [2, 4] was “ulcer D I pinhead-size, clean”. For the same compound, the “wound check-up, ulcer a)” value ([2]; gel (1%) weekly, after 3rd week) was “ulcer D I unchanged”, the “wound check-up, ulcer a)” value ([2]; gel (1%) weekly, after 4th week) was “ulcer D I healed” and the “wound check-up, ulcer c)” value ([2]; large fissure D IV/D V, dressings with gel (1%) at weekly intervals, after 1st week) was “ulcer D IV/D V encrusted”. The “wound check-up, ulcer b)” value ([2]; large ulcer D III, dressings with gel (1%) at weekly intervals, after 1st week) was “ulcer D III clean”, the “wound check-up, ulcer b)” value ([2]; ulcer D III, gel (1%) weekly, after 2nd week) was “ulcer D III, clean granular tissue” and the “wound check-up, ulcer b)” value ([2]; ulcer D III, gel (1%) weekly, after 3rd week) was “ulcer D III pinhead-size”. The “wound check-up, ulcer b)” value ([2]; ulcer D III, gel (1%) weekly, after 4th week) was “ulcer D III healed”, the wound check-up ([2]; diabetic foot syndrome, 1×1 cm greasy ulcer, dressings with gel (1%) at weekly intervals, after 1st week) was “ulcer 0.2×0.4 cm, clean” and the wound check-up [2, 4] was “ulcer healed”. For the same compound, the wound outcome ([2]; Patient D 5, diabetic gangrene on left big toe, four applications of gel (1%) at weekly intervals) was “Regeneration of skin epithelium with complete wound closure, revascularization”, the clinical outcome ([2]; Patient D 7, phlegmons on palm of left hand, incision, local antibiosis with gel (1%), repeated after 2 days) was “Patient symptom-free” and the clinical outcome ([2]; Patient D 9, carbuncle on back of neck, excision, open wound treatment with impregnated compress) was “Patient symptom-free”. For the same compound, the “clinical finding at check-up” value ([3]; Patient A 3.11, tooth 34 apical periodontitis, fistula, root canal insert gel 100 mg/ml, check-up after 10 days) was “patient symptom-free”, the “clinical finding at check-up” value ([3]; Patient A 3.12, tooth 44 fistulation, gangrenous, solution 50 mg/ml by paper point + intraligamental injection 50 mg/ml, check-up after 8 days) was “patient symptom-free” and the “clinical finding at check-up” value ([3]; Patient A 3.15, tooth 31 apical periodontitis due to gangrene, solution 50 mg/ml + gel 50 mg/ml + intraligamental injection 50 mg/ml, check-up after 9 days) was “patient symptom-free, canal odourless”. The “clinical finding at check-up” value ([3]; Patient A 3.21, repetition of flushing and insert, check-up after 10 days) was “patient symptom-free”, the “clinical finding at check-up” value ([3]; Patient A 3.21, tooth 22 fistula, gangrenous, flushing solution 50 mg/ml + gel 50 mg/ml + intraligamental injection 50 mg/ml, check-up after 8 days) was “patient still not fully symptom-free, canal still had very slight odor” and the “clinical finding at check-up” value ([3]; Patient A 3.3, tooth 11 apical periodontitis due to gangrene, solution 50 mg/ml + gel 50 mg/ml + intraligamental injection 50 mg/ml, check-up after 3 days) was “patient symptom-free, canal odourless”. The “clinical finding at check-up” value ([3]; Patient A 3.4, tooth 11 apical periodontitis, not gangrenous, root canal insert gel 50 mg/ml, check-up after 3 days) was “patient symptom-free”, the “clinical finding at check-up” value ([3]; Patient A 3.5, tooth 35 apical periodontitis due to gangrene, solution 50 mg/ml + gel 50 mg/ml + intraligamental injection 50 mg/ml, check-up after 7 days) was “no gangrenous odour, no bite discomfort” and the “clinical finding at check-up” value ([3]; Patient A 3.6, tooth 36 apical periodontitis due to gangrene, gel 50 mg/ml + intraligamental injection 50 mg/ml, check-up after 8 days) was “no gangrenous odour, patient symptom-free”. The “clinical finding at check-up” value ([3]; Patient A 3.7, tooth 14 apical periodontitis due to gangrene, gel 100 mg/ml + intraligamental injection 50 mg/ml, check-up after 7 days) was “patient symptom-free”, the “clinical finding at check-up” value ([3]; Patient A 3.8, tooth 34 apical periodontitis due to gangrene, gel 50 mg/ml + intraligamental injection 50 mg/ml, check-up after 13 weeks) was “patient symptom-free, canal odour-free” and the “clinical finding at check-up” value ([3]; Patient A 3.9, tooth 46 apical periodontitis, not gangrenous, gel 100 mg/ml + intraligamental injection 50 mg/ml, check-up after 7 days) was “patient symptom-free”.
